Assay results: article PMC7395068, “The evolution of strategies to minimise the risk of human drug-induced liver injury (DILI) in drug discovery and development” (Archives of Toxicology, 2020)
Like-named read-outs stand apart in the source and are kept apart here.

Columns and labels:
[1] = tested on: primary human hepatocytes, NIH3T3 fibroblasts, BSEP, CYP3A4; conditions: cited from earlier work
[2] = plasma free fraction; cited from earlier work
[3] = tested on: hLiMTs; test: Combined HCI (HCS) and cellular ATP 3D assay in hLiMTs; conditions: for AC50 / minimal effective concentration: Homo sapiens
[4] = tested on: hLiMTs; conditions: cited from earlier work
[5] = cited from earlier work
[6] = tested on: PHH; conditions: cited from earlier work
[7] = cited from earlier work; remark: listed apart in the source
[8] = tested on: HepG2 C3A spheroid, BSEP, Glu/Gal in HepG2 cells, bioactivation; conditions: cited from earlier work
[9] = tested on: THLE or HepG2 cells, isolated mitochondria, BSEP; conditions: cited from earlier work
[10] = tested on: HepaRG spheroids; test: Combined HCI (HCS) and cellular ATP 3D assay in HepaRG spheroids; conditions: for AC50 / minimal effective concentration: Homo sapiens
[11] = ref Chen 2011; cited from earlier work
[12] = In vitro Assay, ref Schadt 2015
[13] = Microtissue model structural based (HCI), combined HCS and ATP, MEC < 25 × Cmax.tot cut-off
[14] = In vitro Assay, ref Proctor 2017
[15] = Modeled in vitro assays (cytotoxicity, mitochondrial dysfunction, BSEP), ref Aleo et al. 2019

CS(=O)(=O)CCNCc1ccc(-c2ccc3ncnc(Nc4ccc(OCc5cccc(F)c5)c(Cl)c4)c3c2)o1 [lapatinib]
DILI in vitro assay prediction, Schadt (2015) ([1]; BSEP & Metabolism based, ref Schadt et al. 2015): +VE | Cellular toxicity (3T3 cells) [1, 12]: +VE | GSH adduct HML [1, 12]: +VE | Hepatocyte cellular toxicity [1, 12]: -VE | MitoTox 3T3 [1, 12]: -VE | TDI CYP3A4 [1, 12]: +VE | hBSEP inhibition [1, 12]: -VE | fu [2]: 0.010 | AC50 ([3]; read-out: ATP endpoint AC50): 30.1 µM | minimal effective concentration ([3]; read-out: ATP endpoint MEC): 12.6 µM | AC50 ([3]; read-out: HCS endpoint AC50): 30.7 µM | minimal effective concentration ([3]; read-out: HCS endpoint MEC): 1.79 µM | DILI prediction hLiMTs (HCS-MEC) [3, 13]: +VE (MEC < 25 × Cmax.tot cut-off) | hLiMTs <25x Avg Cmax ATP ([3]; hLiMTs, ATP endpoint, cut-off <25x Avg Cmax): +ve | hLiMTs <100x Avg Cmaxu ATP ([3]; hLiMTs, ATP endpoint, cut-off <100x Avg Cmaxu): -ve | hLiMTs <25x Avg Cmax HCS ([3]; hLiMTs, HCS endpoints, cut-off <25x Avg Cmax): +ve | hLiMTs <100x Avg Cmaxu HCS ([3]; hLiMTs, HCS endpoints, cut-off <100x Avg Cmaxu): +ve (<100x Avg Cmaxu) | hLiMTs <25x Avg Cmax All ([3]; hLiMTs, all endpoints (ATP and HCS), cut-off <25x Avg Cmax): +ve | hLiMTs Cmax max All ([3]; hLiMTs, all endpoints, Cmax max used): +ve | hLiMTs Cmax min All ([3]; hLiMTs, all endpoints, Cmax min used): +ve | hLiMTs <10 uM All ([3]; hLiMTs, all endpoints, cut-off <10 uM): +ve (<10 uM) | hLiMTs <100x Avg Cmaxu All ([3]; hLiMTs, all endpoints, cut-off <100x Avg Cmaxu): +ve (<100x Avg Cmaxu) | hLiMTs ATP <100uM [4, 14]: +VE (IC50 threshold of 100 µM) | hLiMTs/100uM, Proctor (2017) ([4]; hLiMTs, ATP, IC50 threshold 100 µM, ref Proctor et al. 2017): +VE (IC50 threshold of 100 µM) | Assigned DILI category ([5]; Chen et al. 2016 or literature alignment, ref Chen et al. 2016): 3 | In vivo DILI ([5]; ref Aleo 2019): +VE | In vivo DILI ([5]; ref Proctor 2017): +VE | In vivo DILI ([5]; ref Schadt 2015): +VE | In vivo DILI ([5]; ref Williams 2019): +VE | PHH/100uM, Proctor (2017) ([6]; 2D PHH, ATP, IC50 threshold 100 µM, ref Proctor et al. 2017): +VE (IC50 threshold of 100 µM) | PHH ATP <100uM [6, 14]: +VE (IC50 threshold of 100 µM) | DILI severity category (Chen et al. [2016]) ([7]; LTKB DILIrank category, ref Chen et al. 2016): Most | DILI severity category (Chen 2016) ([7]; human DILI classification, LTKB DILIrank, ref Chen et al. 2016): Most | DILI severity category ([7]; human DILI severity, ref Chen et al.): Most | DILI +VE (5-8), DILI -VE (-4) ([7]; ref Chen 2016): +VE | DILI severity category ([7]; ref Chen 2016): vMost-DILI-Concern | Bayesian Machine Learning DILI prediction, Williams (2019) ([8]; Bayesian modeling, ref Williams et al. 2019): +VE | Bayesian Machine Learning ([8]; In vitro Assay, ref Williams 2019): +VE | Partition Hybrid HRM Score ([9]; In vitro Assay, ref Aleo 2019): +VE | Ro2 Hybrid HRM Score ([9]; In vitro Assay, ref Aleo 2019): +VE | Partition Hybrid HRM Score ≥4, Aleo (2019) [9, 15]: +VE (Partition Hybrid HRM Score ≥4) | Partition Hybrid HRM Score ≥8, Aleo (2019) [9, 15]: +VE (Partition Hybrid HRM Score ≥8) | Rule of Two hybrid HRM Score ≥3, Aleo (2019) [9, 15]: +VE (Rule of Two hybrid HRM Score ≥3) | Rule of Two hybrid HRM Score ≥8, Aleo (2019) [9, 15]: +VE (Rule of Two hybrid HRM Score ≥8) | HepaRG <25x Avg Cmax ATP ([10]; HepaRG, ATP endpoint, cut-off <25x Avg Cmax): +ve | HepaRG <100x Avg Cmaxu ATP ([10]; HepaRG, ATP endpoint, cut-off <100x Avg Cmaxu): +ve (<100x Avg Cmaxu) | HepaRG <25x Avg Cmax HCS ([10]; HepaRG, HCS endpoints, cut-off <25x Avg Cmax): +ve | HepaRG <100x Avg Cmaxu HCS ([10]; HepaRG, HCS endpoints, cut-off <100x Avg Cmaxu): +ve (<100x Avg Cmaxu) | HepaRG <25x Avg Cmax All ([10]; HepaRG, all endpoints (ATP and HCS), cut-off <25x Avg Cmax): +ve | HepaRG Cmax max All ([10]; HepaRG, all endpoints, Cmax max used): +ve | HepaRG Cmax min All ([10]; HepaRG, all endpoints, Cmax min used): +ve | HepaRG <10 uM All ([10]; HepaRG, all endpoints, cut-off <10 uM): +ve (<10 uM) | HepaRG <100x Avg Cmaxu All ([10]; HepaRG, all endpoints, cut-off <100x Avg Cmaxu): +ve (<100x Avg Cmaxu) | AC50 ([10]; HepaRG, read-out: ATP endpoint AC50): 2.11 µM | minimal effective concentration ([10]; HepaRG, read-out: ATP endpoint MEC): 1.21 µM | AC50 ([10]; HepaRG, read-out: HCS endpoint AC50): 2.25 µM | minimal effective concentration ([10]; HepaRG, read-out: HCS endpoint MEC): 0.768 µM | DILI prediction HepaRG spheroids (HCS-MEC) [10, 13]: +VE (MEC < 25 × Cmax.tot cut-off) | DILI Score (FDA) (1-8) [11]: 8
